# Experimental data taken from patent US12233081B2, “Hygromycin a compounds and methods of treating spirochete diseases” (priority 2018, dated 2025).
# Test system: gut microbiome
# Assay: gut microbiome 16S rRNA sequencing of stool of infected, treated mice
# Conditions: oral 50 mg/kg every 12 hours for 5 days; for Bacteroidaceae change in percent relative abundance / Streptococcaceae change in percent relative abundance: 50 mg/kg
smiles,measurement,setting,value
CC(=O)[C@H]1O[C@@H](Oc2ccc(/C=C(\C)C(=O)N[C@@H]3[C@H](O)[C@@H](O)[C@H]4OCO[C@H]4[C@@H]3O)cc2O)[C@@H](O)[C@@H]1O [Hygromycin A],Aerococcaceae change in percent relative abundance,,0.000%
same,Anaerolineaceae change in percent relative abundance,,0.000%
same,Anaeroplasmataceae change in percent relative abundance,,−0.016%
same,Anaplasmataceae change in percent relative abundance,,0.000%
same,Aspergillaceae change in percent relative abundance,,0.000%
same,Asteraceae change in percent relative abundance,,0.000%
same,Bacillaceae change in percent relative abundance,,−0.009%
same,Bacillales change in percent relative abundance,,−0.092%
same,Bifidobacteriaceae change in percent relative abundance,,0.013%
same,Brucellaceae change in percent relative abundance,,0.000%
same,Camobacteriaceae change in percent relative abundance,,0.005%
same,Chitinophagaceae change in percent relative abundance,,0.000%
same,Christensenellaceae change in percent relative abundance,,0.000%
same,Clostridiaceae change in percent relative abundance,,−5.257%
same,Clostridiales change in percent relative abundance,,−0.174%
same,Clostridiales family xi. incertae sedis change in percent relative abundance,,−0.032%
same,Clostridiales family xiii. incertae sedis change in percent relative abundance,,−0.007%
same,Coriobacteriaceae change in percent relative abundance,,−0.038%
same,Corynebacteriaceae change in percent relative abundance,,0.000%
same,Cytophagaceae change in percent relative abundance,,−0.001%
same,Deferribacteraceae change in percent relative abundance,,−1.462%
same,Defluviitaleaceae change in percent relative abundance,,−0.002%
same,Desulfobacteraceae change in percent relative abundance,,−0.001%
same,Enterobacteriaceae change in percent relative abundance,,−0.026%
same,Enterococcaceae change in percent relative abundance,,6.546%
same,Erysipelotrichaceae change in percent relative abundance,,1.506%
same,Eubacteriaceae change in percent relative abundance,,−6.405%
same,Fabaceae change in percent relative abundance,,0.000%
same,Flavobacteriaceae change in percent relative abundance,,−0.001%
same,Francisellaceae change in percent relative abundance,,0.000%
same,Fusobacteriaceae change in percent relative abundance,,0.000%
same,Gammaproteobacteria change in percent relative abundance,,−0.025%
same,Gloeobacteraceae change in percent relative abundance,,−0.013%
same,Gracilibacteraceae change in percent relative abundance,,−0.072%
same,Halomonadaceae change in percent relative abundance,,0.000%
same,Hylidae change in percent relative abundance,,0.000%
same,Kopriimonadaceae change in percent relative abundance,,0.000%
same,Lachnospiraceae change in percent relative abundance,,−8.372%
same,Lactobacillaceae change in percent relative abundance,,22.074%
same,Leuconostocaceae change in percent relative abundance,,0.000%
same,Methylobacteriaceae change in percent relative abundance,,0.000%
same,Microbacteriaceae change in percent relative abundance,,0.000%
same,Mucoraceae change in percent relative abundance,,0.000%
same,Nostocaceae change in percent relative abundance,,0.000%
same,Onagraceae change in percent relative abundance,,0.000%
same,Oscillatoriales change in percent relative abundance,,0.001%
same,Oscillospiraceae change in percent relative abundance,,−0.009%
same,Paenibacillaceae change in percent relative abundance,,−0.002%
same,Pasteurellaceae change in percent relative abundance,,0.000%
same,Pelobacteraceae change in percent relative abundance,,0.000%
same,Peptococcaceae change in percent relative abundance,,−0.835%
same,Peptoniphilaceae change in percent relative abundance,,0.000%
same,Peptostreptococcaceae change in percent relative abundance,,−0.095%
same,Physalacriaceae change in percent relative abundance,,0.000%
same,Poaceae change in percent relative abundance,,0.007%
same,Polyangiaceae change in percent relative abundance,,0.000%
same,Porphyromonadaceae change in percent relative abundance,,−23.435%
same,Prevotellaceae change in percent relative abundance,,−0.285%
same,Pseudomonadaceae change in percent relative abundance,,0.000%
same,Rhizobiaceae change in percent relative abundance,,0.000%
same,Rhodobacteraceae change in percent relative abundance,,0.000%
same,Rikenellaceae change in percent relative abundance,,−4.391%
same,Ruminococcaceae change in percent relative abundance,,−1.494%
same,Sphingomonadaceae change in percent relative abundance,,0.000%
same,Spirochaetaceae change in percent relative abundance,,−0.086%
same,Spiroplasmataceae change in percent relative abundance,,−0.093%
same,Staphylococcaceae change in percent relative abundance,,0.001%
same,Thermoanaerobacteraceae change in percent relative abundance,,−0.010%
same,Veillonellaceae change in percent relative abundance,,0.002%
same,Verrucomicrobiaceae change in percent relative abundance,,−0.017%
same,Xanthomonadaceae change in percent relative abundance,,0.000%
same,increases in Enterococcaceae or Enterobacteriaceae,,did not lead to increases
same,mice that maintained Bacteroidaceae,,1/5
same,mice with decreased Bacteroidaceae,,3/5
same,mice with increased Bacteroidaceae,,1/5
same,Bacteroidaceae change in percent relative abundance,,−8.5%
same,Streptococcaceae change in percent relative abundance,,31.09%
same,Bacteroidaceae change in percent relative abundance,listed as Hyg,−8.462%
same,Streptococcaceae change in percent relative abundance,listed as Hyg,31.098%
